Test results published in patent publication US8232401B2 (Japan Tobacco Inc., priority 2002, dated 2012).

Molecular target: T1, HIV integrase (Human immunodeficiency virus type 1 group M subtype B, UniProt P12497, F1332H)
T1 construct: HIV integrase full length gene; made in house; host or cells: Escherichia coli BL21(DE3)
Assay: Determination of enzyme (HIV integrase) inhibitory activity (strand transfer, microtiter plate, absorbance at 450 nm)
Format: biochemical, HIV (Human Immunodeficiency Virus (type 1))
Conditions: recombinant HIV integrase (F185H) expressed in E. coli; donor DNA on streptavidin plate, digoxigenin target DNA; 37° C.

Compound | IC50
CCOc1cc(Cc2cccc(Cl)c2F)cc2c(=O)c(C(=O)O)cn(CCO)c12 [Example 3-47, 6-(3-Chloro-2-fluorobenzyl)-8-ethoxy-1-(2-hydroxyethyl)-4-oxo-1,4-dihydroquinoline-3-carboxylic acid] | 8.6 nM
CC(C)(C)NS(=O)(=O)Cn1cc(C(=O)O)c(=O)c2cc(Cc3cccc(Cl)c3Cl)ccc21 [Example 1-70, 1-tert-Butylsulfamoylmethyl-6-(2,3-dichlorobenzyl)-4-oxo-1,4-dihydroquinoline-3-carboxylic acid] | 82 nM
O=C(O)Cn1cc(C(=O)O)c(=O)c2cc(Cc3cccc(Cl)c3Cl)ccc21 [Example 1-28, 1-Carboxymethyl-6-(2,3-dichlorobenzyl)-4-oxo-1,4-dihydroquinoline-3-carboxylic acid] | 59 nM
O=C(O)c1cn(CCO)c2ccc(Cc3cccc(-c4ccccc4)c3)cc2c1=O [Example 1-88] | 450 nM
O=C(O)c1cn(CCc2ccccn2)c2ccc(Cc3cccc(Cl)c3Cl)cc2c1=O [Example 1-45, 6-(2,3-Dichlorobenzyl)-4-oxo-1-(2-pyridin-2-ylethyl)-1,4-dihydroquinoline-3-carboxylic acid] | 210 nM
CCNc1cc(Cc2cccc(Cl)c2F)cc2c(=O)c(C(=O)O)cn(CCO)c12 [Example 3-55, 6-(3-Chloro-2-fluorobenzyl)-8-ethylamino-1-(2-hydroxyethyl)-4-oxo-1,4-dihydroquinoline-3-carboxylic acid] | 8.7 nM
O=C(O)c1cn(CCO)c2ccc(Cc3cccc(F)c3Cl)cc2c1=O [Example 1-66, 6-(2-Chloro-3-fluorobenzyl)-1-(2-hydroxyethyl)-4-oxo-1,4-dihydroquinoline-3-carboxylic acid] | 49 nM
CNc1cc2c(cc1Cc1cccc(Cl)c1F)c(=O)c(C(=O)O)cn2CCO [Example 3-65, 6-(3-Chloro-2-fluorobenzyl)-7-methylamino-1-(2-hydroxyethyl)-4-oxo-1,4-dihydroquinoline-3-carboxylic acid] | 15 nM
CCCn1cc(C(=O)O)c(=O)c2cc(Cc3cccc(Cl)c3Cl)ccc21 [Example 1-38, 6-(2,3-Dichlorobenzyl)-4-oxo-1-propyl-1,4-dihydroquinoline-3-carboxylic acid] | 170 nM
CNC(=O)Cn1cc(C(=O)O)c(=O)c2cc(Cc3cccc(Cl)c3Cl)ccc21 [Example 1-6, 6-(2,3-Dichlorobenzyl)-1-methylcarbamoylmethyl-4-oxo-1,4-dihydroquinoline-3-carboxylic acid] | 140 nM
Cc1c(Cl)cccc1Cc1ccc2c(c1)c(=O)c(C(=O)O)cn2CCO [Example 3-2, 6-(3-Chloro-2-methylbenzyl)-1-(2-hydroxyethyl)-4-oxo-1,4-dihydroquinoline-3-carboxylic acid] | 200 nM
COc1cc(Cc2c(F)ccc(Cl)c2F)cc2c(=O)c(C(=O)O)cn(CCO)c12 [Example 3-37, 6-(3-Chloro-2,6-difluorobenzyl)-1-(2-hydroxyethyl)-8-methoxy-4-oxo-1,4-dihydroquinoline-3-carboxylic acid] | 11 nM
CN(C)CCn1cc(C(=O)O)c(=O)c2cc(Cc3cccc(Cl)c3Cl)ccc21 [Example 1-24, 6-(2,3-Dichlorobenzyl)-1-(2-dimethylaminoethyl)-4-oxo-1,4-dihydroquinoline-3-carboxylic acid] | 290 nM
CC[C@@H](CO)n1cc(C(=O)O)c(=O)c2cc(Cc3cccc(Cl)c3F)cc(OC)c21 [Example 3-79, (S)-6-(3-Chloro-2-fluorobenzyl)-1-[1-(hydroxymethyl)propyl]-8-methoxy-4-oxo-1,4-dihydroquinoline-3-carboxylic acid] | 6.7 nM
O=C(O)c1cn(CCO)c2c(C(F)(F)F)cc(Cc3cccc(Cl)c3F)cc2c1=O [Example 3-25, 6-(3-Chloro-2-fluorobenzyl)-1-(2-hydroxyethyl)-4-oxo-8-trifluoromethyl-1,4-dihydroquinoline-3-carboxylic acid] | 69 nM
O=C(O)c1cn(CCCCO)c2ccc(Cc3cccc(Cl)c3Cl)cc2c1=O [Example 1-21, 6-(2,3-Dichlorobenzyl)-1-(4-hydroxybutyl)-4-oxo-1,4-dihydroquinoline-3-carboxylic acid] | 74 nM
CC[C@@H](CO)n1cc(C(=O)O)c(=O)c2cc(Cc3cccc(Cl)c3F)cc(OC(C)C)c21 [Example 4-17, (S)-6-(3-Chloro-2-fluorobenzyl)-1-[1-(hydroxymethyl)propyl]-8-isopropyloxy-4-oxo-1,4-dihydroquinoline-3-carboxylic acid] | 3.1 nM
CCOc1cc(Cc2cccc(Cl)c2F)cc2c(=O)c(C(=O)O)cn([C@H](CO)C(C)C)c12 [Example 4-45, (S)-6-(3-Chloro-2-fluorobenzyl)-8-ethoxy-1-(1-hydroxymethyl-2-methylpropyl)-4-oxo-1,4-dihydroquinoline-3-carboxylic acid] | 3.4 nM
O=C(O)c1cn(CCO)c2ccc(Cc3ccccc3OC(F)(F)F)cc2c1=O [Example 1-93, 1-(2-Hydroxyethyl)-4-oxo-6-(2-trifluoromethyloxybenzyl)-1,4-dihydroquinoline-3-carboxylic acid] | 370 nM
CNc1cc(Cc2cccc(Cl)c2F)cc2c(=O)c(C(=O)O)cn(CCO)c12 [Example 3-48, 6-(3-Chloro-2-fluorobenzyl)-1-(2-hydroxyethyl)-8-methylamino-4-oxo-1,4-dihydroquinoline-3-carboxylic acid] | 21 nM
O=C(O)c1cn(CCO)c2c(Oc3ccccc3)cc(Cc3cccc(Cl)c3F)cc2c1=O [Example 3-52, 6-(3-Chloro-2-fluorobenzyl)-1-(2-hydroxyethyl)-4-oxo-8-phenoxy-1,4-dihydroquinoline-3-carboxylic acid] | 12 nM
CC(C)Oc1cc(Cc2cccc(Cl)c2F)cc2c(=O)c(C(=O)O)cn([C@H](CO)C3CCCCC3)c12 [Example 4-50, (S)-6-(3-Chloro-2-fluorobenzyl)-1-(1-cyclohexyl-2-hydroxyethyl)-8-isopropyloxy-4-oxo-1,4-dihydroquinoline-3-carboxylic acid] | 3.1 nM
CCn1cc(C(=O)O)c(=O)c2cc(Cc3cccc(Cl)c3Cl)ccc21 [Example 1-37, 6-(2,3-Dichlorobenzyl)-1-ethyl-4-oxo-1,4-dihydroquinoline-3-carboxylic acid] | 110 nM
O=C(O)c1cn(CCO)c2c(F)cc(Cc3cccc(Cl)c3Cl)cc2c1=O [Example 1-2, 6-(2,3-dichlorobenzyl)-1,4-dihydro-8-fluoro-1-(2-hydroxyethyl)-4-oxo-3-quinolinecarboxylic acid] | 33 nM
O=C(O)c1cn(C2CCC2)c2ccc(Cc3cccc(Cl)c3Cl)cc2c1=O [Example 3-12, 1-Cyclobutyl-6-(2,3-dichlorobenzyl)-4-oxo-1,4-dihydroquinoline-3-carboxylic acid] | 16 nM
CS(=O)(=O)c1ccc(Cl)c(Cc2ccc3c(c2)c(=O)c(C(=O)O)cn3CCO)c1 [Example 4-1, 6-(2-Chloro-5-methanesulfonylbenzyl)-1-(2-hydroxyethyl)-4-oxo-1,4-dihydroquinoline-3-carboxylic acid] | 860 nM
Cc1cc2c(cc1Cc1cccc(Cl)c1Cl)c(=O)c(C(=O)O)cn2CCO [Example 4-15, 6-(2,3-Dichlorobenzyl)-7-methyl-1-(2-hydroxyethyl)-4-oxo-1,4-dihydroquinoline-3-carboxylic acid] | 31 nM
